# In PubChem BioAssay AID330 (DTP/NCI, 2004):
# Where “and” joins values, the source holds several entries; their conditions need not be identical. Equal entries are not always repeated. Inconclusive results and toxic doses are left out.
# Test system: P388 leukemia ip, CD2F1 mice, survival T/C
# Assay: NCI In Vivo Anticancer Drug Screen. Data for tumor model P388 Leukemia (intraperitoneal) in CD2F1 (CDF1) mice
# Conditions: endpoint: median survival time, higher = longer survival
# Summary of the method: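 Mice carrying the transplanted tumor received test compound or vehicle. Survival was recorded in each group, and the value is the treated-group measurement divided by that of the vehicle-treated control group.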
# [1] = dose: 60.0 mg/kg/injection, schedule: Q01DX005 (ip), vehicle: saline with Tween-80
# [2] = dose: 25.0 mg/kg/injection, schedule: Q01DX005 (ip), vehicle: Klucel (hydroxypropylcellulose) (HPC)
# [3] = dose: 50.0 mg/kg/injection, schedule: Q01DX005 (ip), vehicle: Klucel (hydroxypropylcellulose) (HPC)
# [4] = dose: 100.0 mg/kg/injection, schedule: Q01DX005 (ip), vehicle: Klucel (hydroxypropylcellulose) (HPC)
# [5] = dose: 50.0 mg/kg/injection, schedule: Q01DX009 (ip), vehicle: Klucel (hydroxypropylcellulose) (HPC)
# [6] = dose: 100.0 mg/kg/injection, schedule: Q01DX009 (ip), vehicle: Klucel (hydroxypropylcellulose) (HPC)
compound,measurement,setting,value
COC1=C/C(=C\C=C\c2ccccc2)C(OC)=CC1=O,T/C,"dose: 2.5 mg/kg/injection, schedule: Q01DX009 (ip), vehicle: saline with Tween-80",102 % of control
same,T/C,"dose: 5.0 mg/kg/injection, schedule: Q01DX009 (ip), vehicle: saline with Tween-80",104 % of control
same,T/C,"dose: 10.0 mg/kg/injection, schedule: Q01DX009 (ip), vehicle: saline with Tween-80",108 % of control
CCOC(=O)c1c(C)c(C(C)=O)c2ccccn12,T/C,[1],104 % of control
same,T/C,"dose: 120.0 mg/kg/injection, schedule: Q01DX005 (ip), vehicle: saline with Tween-80",119 % of control
same,T/C,"dose: 240.0 mg/kg/injection, schedule: Q01DX005 (ip), vehicle: saline with Tween-80",105 % of control
CSC(C(C)=O)c1ccccc1 (centres undefined),T/C,"dose: 25.0 mg/kg/injection, schedule: Q01DX009 (ip), vehicle: saline with Tween-80",100 % of control
same,T/C,"dose: 50.0 mg/kg/injection, schedule: Q01DX009 (ip), vehicle: saline with Tween-80",100 % of control
same,T/C,"dose: 100.0 mg/kg/injection, schedule: Q01DX009 (ip), vehicle: saline with Tween-80",104 % of control
C/C=C(\C)C(=O)OC1CC(C)(C)C2C3C(=O)C=C(C)C2C3(C)C1OC(=O)/C(C)=C/C (centres undefined),T/C,"dose: 75.0 mg/kg/injection, schedule: Q01DX001 (ip), vehicle: Klucel (hydroxypropylcellulose) (HPC)",97 % of control
same,T/C,"dose: 150.0 mg/kg/injection, schedule: Q01DX001 (ip), vehicle: Klucel (hydroxypropylcellulose) (HPC)",98 % of control
same,T/C,"dose: 300.0 mg/kg/injection, schedule: Q01DX001 (ip), vehicle: Klucel (hydroxypropylcellulose) (HPC)",101 % of control
Cc1nc2ccccc2c(=O)n1/N=C1\C(=O)N(C)c2ccccc21,T/C,"dose: 12.5 mg/kg/injection, schedule: Q01DX005 (ip), vehicle: Klucel (hydroxypropylcellulose) (HPC)",100 % of control
same,T/C,[2],96 % of control
same,T/C,[3],91 % of control and 96 % of control
same,T/C,[4],105 % of control
CSC(=S)/N=c1\c(C)cccn1C,T/C,"dose: 25.0 mg/kg/injection, schedule: Q04DX002 (ip), vehicle: saline with Tween-80",98 % of control
same,T/C,"dose: 50.0 mg/kg/injection, schedule: Q04DX002 (ip), vehicle: saline with Tween-80",100 % of control
same,T/C,"dose: 100.0 mg/kg/injection, schedule: Q04DX002 (ip), vehicle: saline with Tween-80",102 % of control
CC(=O)OC1=NC(C)c2c1cc(OC(C)=O)nc2OC(C)=O (centres undefined),T/C,[5],104 % of control
same,T/C,[6],102 % of control
same,T/C,"dose: 200.0 mg/kg/injection, schedule: Q01DX009 (ip), vehicle: Klucel (hydroxypropylcellulose) (HPC)",102 % of control
CNC(=O)c1ccccc1NC(=O)c1ccccc1[N+](=O)[O-],T/C,"dose: 100.0 mg/kg/injection, schedule: Q04DX002 (ip), vehicle: Klucel (hydroxypropylcellulose) (HPC)",102 % of control
same,T/C,"dose: 200.0 mg/kg/injection, schedule: Q04DX002 (ip), vehicle: Klucel (hydroxypropylcellulose) (HPC)",107 % of control
same,T/C,"dose: 400.0 mg/kg/injection, schedule: Q04DX002 (ip), vehicle: Klucel (hydroxypropylcellulose) (HPC)",103 % of control
O=c1[nH]cnc2cc(NCc3ccccc3)c([N+](=O)[O-])cc12,T/C,"dose: 100.0 mg/kg/injection, schedule: Q04DX003 (ip), vehicle: Klucel (hydroxypropylcellulose) (HPC)",100 % of control
same,T/C,"dose: 200.0 mg/kg/injection, schedule: Q04DX003 (ip), vehicle: Klucel (hydroxypropylcellulose) (HPC)",96 % of control
same,T/C,"dose: 400.0 mg/kg/injection, schedule: Q04DX003 (ip), vehicle: Klucel (hydroxypropylcellulose) (HPC)",94 % of control
S=C1N(c2ccc(Cl)cc2)C2=C(N=Nc3cc(Cl)ccc3Cl)C(=Nc3ccccc3S2)N1c1ccccn1,T/C,"dose: 15.0 mg/kg/injection, schedule: Q01DX005 (ip), vehicle: saline with Tween-80",100 % of control
same,T/C,"dose: 30.0 mg/kg/injection, schedule: Q01DX005 (ip), vehicle: saline with Tween-80",110 % of control
same,T/C,[1],106 % of control and 110 % of control
c1ccc2nc(N=Nc3cnc4ccccc4n3)cnc2c1,T/C,"dose: 12.5 mg/kg/injection, schedule: Q01DX001 (ip), vehicle: saline with Tween-80",100 % of control and 93 % of control and 94 % of control
same,T/C,"dose: 12.5 mg/kg/injection, schedule: Q01DX005 (ip), vehicle: saline with Tween-80",94 % of control
same,T/C,"dose: 25.0 mg/kg/injection, schedule: Q01DX001 (ip), vehicle: saline with Tween-80",99 % of control and 94 % of control
same,T/C,"dose: 25.0 mg/kg/injection, schedule: Q01DX005 (ip), vehicle: saline with Tween-80",94 % of control
same,T/C,"dose: 50.0 mg/kg/injection, schedule: Q01DX001 (ip), vehicle: saline with Tween-80",100 % of control and 86 % of control and 97 % of control
same,T/C,"dose: 50.0 mg/kg/injection, schedule: Q01DX005 (ip), vehicle: saline with Tween-80",97 % of control
Cc1ccc(-n2nc(C)cc2C)nn1,T/C,"dose: 50.0 mg/kg/injection, schedule: Q01DX009 (ip), vehicle: saline",99 % of control
same,T/C,"dose: 100.0 mg/kg/injection, schedule: Q01DX009 (ip), vehicle: saline",101 % of control
[N-]=[N+]=Nc1ccc2nc(N)nc(N)c2c1,T/C,"dose: 100.0 mg/kg/injection, schedule: Q01DX001 (ip), vehicle: Klucel (hydroxypropylcellulose) (HPC)",99 % of control
same,T/C,"dose: 200.0 mg/kg/injection, schedule: Q01DX001 (ip), vehicle: Klucel (hydroxypropylcellulose) (HPC)",100 % of control
CN(CCC(C#N)c1ccccc1)Cc1ccccc1 (centres undefined),T/C,[3],92 % of control
same,T/C,[4],101 % of control
C=C(C)[C@@]12OC3(/C=C/C=C/CCCCC)O[C@@H]1[C@@H]1[C@@H]4O[C@]4(CO)[C@@H](O)[C@]4(O)C(=O)C(C)=C[C@H]4[C@@]1(O3)[C@H](C)[C@H]2OC(=O)c1ccccc1,T/C,"dose: 0.1 mg/kg/injection, schedule: Q01DX009 (ip), vehicle: saline + alcohol",120 % of control
same,T/C,"dose: 1.6 mg/kg/injection, schedule: Q01DX009 (ip), vehicle: saline + alcohol",155 % of control
same,T/C,"dose: 0.8 micrograms/kg/injection, schedule: Q01DX009 (ip), vehicle: saline + alcohol",101 % of control
same,T/C,"dose: 1.6 micrograms/kg/injection, schedule: Q01DX009 (ip), vehicle: saline + alcohol",101 % of control
same,T/C,"dose: 2.3 micrograms/kg/injection, schedule: Q01DX009 (ip), vehicle: saline + alcohol",97 % of control
same,T/C,"dose: 3.1 micrograms/kg/injection, schedule: Q01DX009 (ip), vehicle: saline + alcohol",119 % of control
same,T/C,"dose: 4.7 micrograms/kg/injection, schedule: Q01DX009 (ip), vehicle: saline + alcohol",100 % of control
same,T/C,"dose: 9.4 micrograms/kg/injection, schedule: Q01DX009 (ip), vehicle: saline + alcohol",97 % of control
same,T/C,"dose: 18.8 micrograms/kg/injection, schedule: Q01DX009 (ip), vehicle: saline + alcohol",95 % of control
same,T/C,"dose: 37.5 micrograms/kg/injection, schedule: Q01DX009 (ip), vehicle: saline + alcohol",100 % of control
same,T/C,"dose: 75.0 micrograms/kg/injection, schedule: Q01DX009 (ip), vehicle: saline + alcohol",119 % of control
same,T/C,"dose: 150.0 micrograms/kg/injection, schedule: Q01DX009 (ip), vehicle: saline + alcohol",114 % of control
O=S(=O)(O)CC(O)CN1CCN(CCO)CC1 (centres undefined),T/C,"dose: 60.0 mg/kg/injection, schedule: Q01DX005 (ip), vehicle: saline",100 % of control
same,T/C,"dose: 120.0 mg/kg/injection, schedule: Q01DX005 (ip), vehicle: saline",100 % of control
same,T/C,"dose: 240.0 mg/kg/injection, schedule: Q01DX005 (ip), vehicle: saline",98 % of control
C=CC(=O)OCC(C)(C)C,T/C,"dose: 50.0 mg/kg/injection, schedule: Q01DX005 (ip), vehicle: saline",99 % of control
same,T/C,"dose: 100.0 mg/kg/injection, schedule: Q01DX005 (ip), vehicle: saline",98 % of control
same,T/C,"dose: 200.0 mg/kg/injection, schedule: Q01DX005 (ip), vehicle: saline",116 % of control
O=C1Cc2[nH]ccc2C(=O)O1,T/C,"dose: 100.0 mg/kg/injection, schedule: Q01DX001 (ip), vehicle: saline with Tween-80",99 % of control
same,T/C,"dose: 200.0 mg/kg/injection, schedule: Q01DX001 (ip), vehicle: saline with Tween-80",90 % of control
same,T/C,"dose: 400.0 mg/kg/injection, schedule: Q01DX001 (ip), vehicle: saline with Tween-80",107 % of control
Cc1ccc(Cl)cc1NC(=O)Nc1nccs1,T/C,"dose: 25.0 mg/kg/injection, schedule: Q01DX009 (ip), vehicle: Klucel (hydroxypropylcellulose) (HPC)",93 % of control
same,T/C,[5],92 % of control
same,T/C,[6],109 % of control
CC1CCC2(C)C(CC(O)[C@H](O)C2(C)O)C1(C)CCc1ccoc1 (some centres undefined),T/C,"dose: 3.5 mg/kg/injection, schedule: Q01DX005 (ip), vehicle: Klucel (hydroxypropylcellulose) (HPC)",108 % of control
same,T/C,"dose: 7.0 mg/kg/injection, schedule: Q01DX005 (ip), vehicle: Klucel (hydroxypropylcellulose) (HPC)",103 % of control
same,T/C,"dose: 14.0 mg/kg/injection, schedule: Q01DX005 (ip), vehicle: Klucel (hydroxypropylcellulose) (HPC)",106 % of control
same,T/C,[2],101 % of control
same,T/C,"dose: 28.0 mg/kg/injection, schedule: Q01DX005 (ip), vehicle: Klucel (hydroxypropylcellulose) (HPC)",104 % of control
same,T/C,[3],92 % of control
same,T/C,[4],97 % of control
